Test systems include LXFL 529 NSCLC; SNB-78 CNS; RXF-631 renal; HOP-18 NSCLC.
What all share (test): NCI-60 cell line screen, 48 h

The structures appear in SMILES notation.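 In this assay, cells in 96-well plates receive the compound at five concentrations for 48 hours. Endpoints are linearly interpolated between the surrounding concentrations. TGI denotes the concentration required for complete inhibition of growth.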 Some results are limits rather than exact numbers.

For `COc1cc2c(cc1OC)C(C(CO)CO)N(CC(O)CCl)CC2` (configuration not stated), the TGI with LXFL 529 NSCLC, in the experiment on SNB-78 CNS and in the experiment on RXF-631 renal was over 100 µM throughout.

With `O=C1Nc2ccccc2C12CCNC2Cc1ccccc1` (configuration not stated), the TGI in the experiment with LXFL 529 NSCLC and with HOP-18 NSCLC was over 100 µM in each case.

As for `COc1ccc(-c2cc(=O)c3cc4c(cc3[nH]2)OCO4)cc1OC`, the TGI in the experiment on LXFL 529 NSCLC, in the experiment on HOP-18 NSCLC and in the experiment on SNB-78 CNS was over 100 µM in each case.

`NC(CCCC(N)P(=O)(O)c1ccccc1)P(=O)(O)c1ccccc1` (configuration not stated): the TGI in the experiment with LXFL 529 NSCLC, with HOP-18 NSCLC and in the experiment on SNB-78 CNS was over 261 µM each time.

Regarding `Cc1nc(Nc2ccc(Cl)cc2)sc1C(=O)NNc1ccc([N+](=O)[O-])cc1[N+](=O)[O-]`, the TGI in the experiment on LXFL 529 NSCLC was 30.9 µM; in the experiment with HOP-18 NSCLC, 27 µM; with SNB-78 CNS, over 100 µM.

Turning to `Cc1cccc2c(=O)c([Se]c3coc4c(C)cccc4c3=O)coc12`, the TGI in the experiment on LXFL 529 NSCLC is 29.2 µM; with HOP-18 NSCLC it was 41.2 µM; with SNB-78 CNS it was 30.4 µM.

For the molecule `CCOC(=O)C1(C/C=C(/C)Cl)CCCC1=O` (configuration not stated), the TGI in the experiment on LXFL 529 NSCLC, in the experiment on HOP-18 NSCLC and in the experiment with RXF-631 renal was over 100 µM each time.

With `CN1CCCC2(CCCc3ccccc32)C1` (configuration not stated), the TGI in the experiment with LXFL 529 NSCLC, in the experiment with SNB-78 CNS and with RXF-631 renal was over 100 µM in each case.

With `CCCN(CCCC(NC(C)=O)C(=O)NCc1ccccc1)C(=O)N(CCCl)N=O` (configuration not stated), the TGI is 34 µM with LXFL 529 NSCLC, 64.7 µM in the experiment with HOP-18 NSCLC, 71 µM in the experiment on SNB-78 CNS and over 77.6 µM with RXF-631 renal.

Regarding `C[C@]12CCC(=O)C=C1CC[C@@H]1[C@@H]2[C@@H](O)C[C@@]2(C)[C@H]1CC[C@]2(O)C(=O)COC(=O)COCC(=O)O`, the TGI with HOP-18 NSCLC and in the experiment with SNB-78 CNS was over 100 µM each time.

Take `COc1cc2c(c(OC)c1OC)-c1ccc(SC)c(=O)cc1[C@@H](NCc1ccc(C#N)cc1)CC2`: the TGI in the experiment on LXFL 529 NSCLC and in the experiment with SNB-78 CNS was over 100 µM in each case.

Turning to `Clc1ccc(SC(/C=C/NNC2=NC(c3ccccc3)C(c3ccccc3)=NN2)c2ccccc2)cc1` (configuration not stated), the TGI in the experiment on SNB-78 CNS and in the experiment on RXF-631 renal was over 100 µM throughout.

For the molecule `Cc1ccc(S(=O)(=O)N/N=C(\c2nc3ccc(Cl)cc3[nH]c2=O)C(O)c2cccc([N+](=O)[O-])c2)cc1` (configuration not stated), the TGI in the experiment on LXFL 529 NSCLC, with HOP-18 NSCLC, with SNB-78 CNS and in the experiment with RXF-631 renal was over 100 µM in each case.

Consider `CN(C)c1ccc(C(=C(c2ccc(N(C)C)cc2)c2ccc(N(C)C)cc2)c2ccc(N(C)C)cc2)cc1`, for which the TGI in the experiment on LXFL 529 NSCLC is 25.6 µM; in the experiment with HOP-18 NSCLC it was 26.1 µM; with SNB-78 CNS it was over 100 µM; in the experiment with RXF-631 renal, 40.6 µM.

`O=C1c2ccc(O)cc2C(=O)c2ccc(O)cc21`: the TGI in the experiment on LXFL 529 NSCLC, with SNB-78 CNS and in the experiment with RXF-631 renal was over 100 µM each time.

`CC(C)(C)N=NNc1cn(C2OC(CO)C(O)C2O)c(=O)[nH]c1=O` (configuration not stated): the TGI in the experiment with LXFL 529 NSCLC, in the experiment on HOP-18 NSCLC and in the experiment on SNB-78 CNS was over 100 µM each time.

The values above are taken from PubChem BioAssay (NCI).
